Here are results for 1 molecule from patent US20220110846A1, “EMOLLIENT AND CLEANSING AGENT” (Oleon NV, priority 2020, published 2022).

Assay [1] has as its system Candida albicans, DSM 1386. As to the kind of experiment: Minimum inhibitory concentration (ISO 20776-1:2019). Format: cell-based. The method, then:
(§1) Preservatives used were phenoxyethanol and benzyl alcohol.
(§2) Micro-organisms used were: • Staphylococcus aureus, DSM 799; • Candida albicans, DSM 1386.
(§3) Two samples were prepared comprising each 90 wt % of combination 1 and 10 wt % of respectively phenoxyethanol and benzyl alcohol.
(§4) Two comparative samples comprising 100 wt % of respectively phenoxyethanol and benzyl alcohol were also prepared.
(§5) To evaluate the boosting antimicrobial property of the combination according to the invention, the minimum inhibitory concentration (MIC) was determined according to a method based on standard ISO 20776-1:2019.

Assay [2] concerns Staphylococcus aureus, DSM 799. Described as above. Format: cell-based. The method, then: as §1, §2, §3, §4, §5

As for `OCc1ccccc1` [Benzyl alcohol, benzyl alcohol], the “MIC, Candida albicans” value in assay [1] was 0.30%. Moreover, in assay [2], the “MIC, Staphylococcus aureus” value was found to be 0.40%.
